# Measured values published in ChEMBL document CHEMBL1201862, “PubChem BioAssay data set” (2004).
# Calls of active or inactive are those of the source.
# Key:
# [1] = IGROV1 cell killing – plate reader, dry powder samples, PAX8 inhibitor project, dose response (AID 743043); type: functional, cell-based; settings: IGROV-1
# Paired box protein Pax-8 = Paired box protein Pax-8 (Homo sapiens, UniProt Q06710); assay: PAX8 transcriptional activity inhibition in RMG-I – RMG-I cells, luciferase, cherry-pick, dose response (AID 687027); type: functional, cell-based;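 note: luciferase reporter driven by Pax8 target thyroperoxidase promoter measured by SteadyGlo luminescence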
# Paired box protein Pax-8, sequence (Q06710 whole entry): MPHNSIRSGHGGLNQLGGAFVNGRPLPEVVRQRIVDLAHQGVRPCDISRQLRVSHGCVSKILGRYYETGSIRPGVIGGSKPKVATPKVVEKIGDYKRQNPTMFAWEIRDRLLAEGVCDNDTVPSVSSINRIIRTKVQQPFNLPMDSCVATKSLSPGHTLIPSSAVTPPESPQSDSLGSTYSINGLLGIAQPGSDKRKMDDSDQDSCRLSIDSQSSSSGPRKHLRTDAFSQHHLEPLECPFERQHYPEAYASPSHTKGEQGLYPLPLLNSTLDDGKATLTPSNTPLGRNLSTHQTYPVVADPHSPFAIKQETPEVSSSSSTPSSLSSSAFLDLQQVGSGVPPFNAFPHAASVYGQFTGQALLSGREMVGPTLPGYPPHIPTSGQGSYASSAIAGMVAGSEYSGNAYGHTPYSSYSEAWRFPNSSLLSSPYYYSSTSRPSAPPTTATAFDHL
# [2] = OVCAR-3 cell viability loss – plate reader, dry powder samples, PAX8 inhibitor project, dose response (AID 743044); type: functional, cell-based
# [3] = OVCAR8 cell viability loss – plate reader, dry powder samples, PAX8 project, dose response (AID 743197); type: functional, cell-based; settings: OVCAR-8
# [4] = blockers of HIV-1 envelope-mediated cell-cell fusion – cherry-pick, dose response (AID 652057); type: functional, cell-based
# [5] = CTGF mRNA reduction in DLD1 cells – cell-based, DLD1 colon cancer, RT-qPCR, cherry-pick, dose response (AID 1053122); type: functional; settings: Cancer cell lines
# [6] = HIV-1 AD8 envelope cell-cell fusion blockers – cherry-pick, dose response (AID 652062); type: functional, cell-based;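 note: luciferase signal from cell-cell fusion driven by HIV-1 clade B AD8 Env; potency is for inhibitors of fusion seen as a drop in luminescence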
# [7] = P. falciparum Dd2 growth inhibitors, dose response, SYBR Green, cherry-picked samples (AID 1159567); type: functional, cell-based
# [8] = kidney cell line viability loss – HEK293T, luminescence plate reader, powder samples, set 4, cytotoxicity control, dose response (AID 651863); type: functional, cell-based; settings: HEK293
# [9] = molecular target: Metabotropic glutamate receptor 5 (Rattus norvegicus, UniProt P31424); assay: Identification of a glycine sulfonamide based non-MPEP site positive allosteric potentiator (PAM) of mGlu5 (calcium_assay).; type: functional
# Metabotropic glutamate receptor 5, sequence (P31424 whole entry): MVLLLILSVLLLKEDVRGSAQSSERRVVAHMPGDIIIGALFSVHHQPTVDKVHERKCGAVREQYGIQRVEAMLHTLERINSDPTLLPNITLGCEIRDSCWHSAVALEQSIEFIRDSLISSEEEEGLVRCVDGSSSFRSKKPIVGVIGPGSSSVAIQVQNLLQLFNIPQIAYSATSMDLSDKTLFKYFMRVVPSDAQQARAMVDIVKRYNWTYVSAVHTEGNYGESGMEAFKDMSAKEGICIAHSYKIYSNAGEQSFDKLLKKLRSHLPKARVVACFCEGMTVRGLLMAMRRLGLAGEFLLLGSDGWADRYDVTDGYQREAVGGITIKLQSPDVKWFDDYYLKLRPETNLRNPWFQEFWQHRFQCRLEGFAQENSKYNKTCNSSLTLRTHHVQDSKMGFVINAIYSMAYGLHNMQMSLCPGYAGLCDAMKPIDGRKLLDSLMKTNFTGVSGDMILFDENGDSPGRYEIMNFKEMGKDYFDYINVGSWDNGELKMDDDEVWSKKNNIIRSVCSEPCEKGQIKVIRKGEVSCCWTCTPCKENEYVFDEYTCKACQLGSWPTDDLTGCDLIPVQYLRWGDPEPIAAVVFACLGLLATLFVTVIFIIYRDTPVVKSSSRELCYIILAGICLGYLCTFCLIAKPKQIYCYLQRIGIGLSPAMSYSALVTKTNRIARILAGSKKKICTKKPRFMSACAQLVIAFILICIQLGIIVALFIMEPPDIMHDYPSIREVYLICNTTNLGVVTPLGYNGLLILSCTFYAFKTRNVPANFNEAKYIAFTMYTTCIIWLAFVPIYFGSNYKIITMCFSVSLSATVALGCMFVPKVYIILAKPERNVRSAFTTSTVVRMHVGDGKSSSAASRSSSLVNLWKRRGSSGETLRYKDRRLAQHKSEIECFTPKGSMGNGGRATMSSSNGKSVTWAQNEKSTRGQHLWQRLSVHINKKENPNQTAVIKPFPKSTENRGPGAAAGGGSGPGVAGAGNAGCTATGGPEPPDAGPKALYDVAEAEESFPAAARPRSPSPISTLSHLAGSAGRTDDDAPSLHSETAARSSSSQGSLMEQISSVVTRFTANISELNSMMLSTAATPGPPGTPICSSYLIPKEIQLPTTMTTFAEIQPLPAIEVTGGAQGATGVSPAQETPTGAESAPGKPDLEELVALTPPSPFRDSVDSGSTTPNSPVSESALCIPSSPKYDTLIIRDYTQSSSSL
# [10] = human cervical cancer cell viability loss – 24 h, plate reader, dry powder, cytotoxicity control, dose response (AID 686928); type: functional, cell-based; settings: HeLa
# [11] = MITF Orthogonal Assay: SK-MEL-5 CTG Assay Measured in Cell-Based System Using Plate Reader - 2084-02_Inhibitor_Dose_DryPowder_Activity_Set7.; type: functional
# [12] = MITF: Counter assay: A375 proliferation Measured in Cell-Based System Using Plate Reader - 2084-03_Inhibitor_Dose_DryPowder_Activity_Set8.; type: functional; settings: A-375
# [13] = inhibitors of TRPM1-promoter reporter in SK-MEL-5 – cell-based, luciferase, dry powder, set 8, MITF inhibitor project, dose response (AID 624430); type: functional
# Protein Wnt-3a = Protein Wnt-3a (Mus musculus, UniProt P27467); assay: SAR analysis of small molecule antagonists of Gli-SUFU in a Wnt3a luminescent reporter assay.; type: functional
# Protein Wnt-3a, sequence (P27467 whole entry): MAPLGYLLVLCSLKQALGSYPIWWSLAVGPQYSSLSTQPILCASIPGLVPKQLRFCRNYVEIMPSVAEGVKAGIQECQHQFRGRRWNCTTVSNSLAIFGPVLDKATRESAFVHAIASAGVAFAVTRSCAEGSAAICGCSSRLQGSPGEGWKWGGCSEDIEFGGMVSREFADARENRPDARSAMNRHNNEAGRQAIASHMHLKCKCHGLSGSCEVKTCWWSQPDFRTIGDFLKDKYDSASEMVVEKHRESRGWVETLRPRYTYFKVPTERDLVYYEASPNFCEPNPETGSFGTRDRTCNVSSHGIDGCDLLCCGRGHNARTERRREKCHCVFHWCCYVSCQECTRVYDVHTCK
# [14] = inhibition of bursicon-driven LGR2 cAMP signaling – cell-based, HEK293, CRE-luciferase reporter, cherry pick, dose response (AID 743342); type: functional
# [15] = A549 cell cytotoxicity, dose response, cytotoxicity control, plate reader, cherry-pick, antagonist series (AID 743412); type: functional, cell-based
# [16] = T. cruzi growth inhibition in host cells, dose response, cell-based, plate reader, dry powder, set 2 (AID 652275); type: functional
smiles,measurement,setting,value
C[C@@H]1CN([C@@H](C)CO)C(=O)Cc2cc(NS(=O)(=O)c3ccc(Cl)cc3)ccc2O[C@H]1CN(C)Cc1ccc(Oc2ccccc2)cc1,AC50,[1],25.9 µM (active)
same,AC50,Paired box protein Pax-8,6.27 µM (active)
same,AC50,[2],22.5 µM (active)
same,AC50,[3],26.7 µM (active)
N#C[C@@H]1[C@H](c2ccc(-c3cccc(F)c3)cc2)[C@H](CO)N1C(=O)NC1CCCC1,AC50,[4],39.5 µM (active)
same,AC50,[5],> 26 µM (inactive)
same,AC50,[6],0.768 µM (active)
same,AC50,[7],2.84 µM (active)
COC(=O)[C@@H]1CCCC[C@@H]1C(=O)N1CCc2ccccc2[C@H]1CN1C(=O)c2ccccc2C1=O,AC50,[8],> 52 µM (inactive)
CS(=O)(=O)N(CC(=O)NCC(F)(F)F)c1ccccc1Cl,EC50,[9],10 µM (inconclusive)
CCCCCCCCCC(=O)[C@@H](O)CC.CCCCCCCCCC(=O)[C@H](O)CC,AC50,[10],> 200 µM (inactive)
CC(C)N1CCN(C2=C(Nc3cccc(Br)c3)C(=O)c3ccccc3C2=O)CC1,AC50,[11],11.5 µM (active)
same,AC50,[12],48.5 µM (active)
same,AC50,[13],2.52 µM (active)
CCN(CC)c1cc(NC(=O)c2ccccc2F)ncn1,IC50,Protein Wnt-3a,0.172 µM (active)
C[C@H](CO)N1C[C@H](C)[C@H](CN(C)C(=O)Nc2ccccc2)OCCCC[C@H](C)Oc2ccc(NC(=O)C3CCCCC3)cc2C1=O,AC50,[14],3.87 µM (active)
same,AC50,[15],39.5 µM (active)
CN(C)CC#Cc1cccc(-c2nc(C(=O)NCc3ccc(Oc4ccccc4)cc3)cc3c2[C@H](CCO)N([S+]([O-])C(C)(C)C)C3)c1 (stereo partly drawn),AC50,[16],0.746 µM (active)
